This is an account of results in patent US20040033982A1, “Viral inhibition by n-docosanol” (priority 2001, published 2004).

SMILES strings stand for the structures.

In one data set the test system is HSV-2. Kind of data set: HSV-2 internalization into Vero cells (citrate buffer wash). It counts as cell-based. The procedure:
FIG. 9 depicts data showing that HSV-2 remains on the surface of n-docosanol treated Vero cells for prolonged times. Vero cells were cultured as described in the legend to FIG. 7 and incubated overnight. The cultures were then chilled to 4° C., inoculated with 100 PFU of HSV-2, and incubated 3 hours at 4° C. At time zero the cultures were washed with medium, inoculated with fresh medium (containing the indicated inhibitor) and incubated at 37° C. At each indicated time period, the cultures were washed with citrate buffer (pH 2.5) and reinoculated with fresh medium (lacking inhibitor). After a total of 44 hours incubation the cultures were stained and scored for HSV-2-induced plaques. The data are expressed as geometric means and standard errors derived from triplicate cultures per group.
In this experiment, HSV-2 was incubated with Vero cells in the absence or presence of n-docosanol at 4° C. to allow for receptor binding of the virus. At the end of 3 hours, all cultures were washed and then replated at 37° C. in order to initiate the viral entry process. At 20 minute intervals thereafter, the various cultures were exposed to pH 3.0 citrate buffer, conditions which remove and inactivate surface-bound, but not internalized, HSV virions, and then re-cultured the full 44 hour period required to develop optimal HSV plaques.

Data set [1] deals with HSV. Kind of data set: HSV antigens by ELISA, ICP4 immunofluorescence, secondary plaque assay. It counts as cell-based. The source says: Thus, the amounts of both HSV core and envelope protein antigens detectable by ELISA, as well as the numbers of infected cells expressing the intranuclear HSV-specific immediate-early protein, ICP4, by immunofluorescence, are reduced by more than 80%. Finally, the replication of infectious virions as measured in secondary plaque assay cultures is markedly diminished by 99% or more in n-docosanol treated cells.
(In an ELISA, binding on a coated surface is turned into a signal by an enzyme label.)

For a further data set, the system named is Vero cells. Description: Cellular uptake, distribution and metabolism of radiolabeled n-docosanol. It counts as in vitro ADME, African Green monkey. The procedure:
FIG. 10 depicts data showing that radioactive metabolites of n-[^14C]docosanol display the properties of phosphatidylcholine and phosphatidylethanolamine. A portion (0.5 ml) of the methanol eluate of the silica lipid fractionation was evaporated under nitrogen, resuspended in 20 μl chloroform:methanol (3:2; v:v) and spotted on a silica thin layer chromatography (TLC) sheet. After development with chloroform:methanol:acetic acid:water (60:50:1:4; v:v:v:v), the positions of standards were determined by staining with iodine vapors and the cpm per fraction determined by scintillation spectrometry after cutting the plastic-backed sheet into 5 mm strips.
FIG. 11 depicts data showing that n-[^14C]-Docosanol is metabolized more by Vero cells than by MDBK cells. Vero or MDBK cells were plated as described. n-[^14C]-docosanol was added to […] (0.24 mM Tetronic 908) and the cultures were incubated 72 hours at 37° C./CO2. Cells were extracted and analyzed on TLC with hexane:diethyl ether:acetic acid (20:30:1; v:vv) as the developing solvent. With this solvent system the polar phosphatides remain at the origin. The position of migration of n-[^14C]-docosanol is indicated. Duplicate plates were treated with an identical suspension lacking the radioactive label, and the numbers of cells in these duplicate plates were determined by counting cells excluding trypan blue with a hemocytometer.
In order to better define the precise mechanism by which n-docosanol exerts its antiviral activity, the cellular uptake, distribution, and metabolism of n-docosanol from surfactant-stabilized suspensions has been studied. The results of such studies have provided some interesting insight into the metabolic basis of the compound's antiviral action. It has been shown that radioactively labeled n-docosanol is progressively incorporated into cultured Vero cells, reaching a peak uptake per cell between 6 and 12 hours after exposure. The process is irreversible, since once the compound is cell-associated it cannot be removed even with extensive washing with cesium bromide, which effectively removes nonspecifically associated cell-bound particles.
Nonmetabolized n-docosanol was previously eluted from the silica with chloroform. As shown, approximately 62% of the counts migrated in the region of phosphatidylcholine and 38% migrated in the region of phosphatidylethanolamine.
Of the counts that are metabolized in two cells lines, the relative amounts in the major classes of phosphatides that are formed, phosphatidylcholine and phosphatidylethanolamine, are not different in the two cell lines.

Data set [2] has as its system HSV. Description: Inhibition of HSV replication, Tetronic versus Pluronic suspension. It counts as cell-based. The source says: An initial step in conducting such studies involved switching to a different surfactant or suspending n-docosanol. Tetronic 908 is closely related to Pluronic F68; both are block copolymers of ethylene oxide and propylene oxide. However, whereas Pluronic is a bifunctionaI polymer with a molecular weight of 8,400, Tetronic 908 is a tetrfunctional copolymer, produced by adding propylene oxide and ethylene oxide to ethylenediamine and resulting in a molecule with an average molecular weight of 25,000. […] This appears to relate to the 3-fold higher levels of metabolic conversion in cells treated with n-docosanol in Tetronic.

The next data set relates to HSV-1 or HSV-2. Kind of data set: Inhibition of HSV production and plaque formation in Vero cells. It counts as cell-based. The procedure: Cultured cells were placed in 35-mm wells (2 ml; 3×10^5 cells/ml) in DMEM containing L-glucamine, pennstrep (cDMEM) and supplemented with 5% FCS. n-Docosanol or the corresponding control vehicle (lacking n-docosanol) was added at the outset of the culture. All cultures were then inoculated with 175 p.f.u. of HSV-1 or HSV-2.
The cultures were incubated for an additional 42-44 h, washed once with fresh medium, stained and fixed (the staining/fixative consists of 1.25 mg/ml of carbol-fuchsin plus 2.5 mg/ml of methylene blue in methanol) and then scored for HSV-induced plaques using a dissecting microscope (10× magnification). Thc data are averages of duplicate cultures, which varied by no more than 5-10%.

Setting [3] is: saturating concentrations, within 24 hours.

Take `CCCCCCCCCCCCCCCCCCCCCCO` [n-docosanol]: in the data set with HSV-2, the “time for internalization to reach completion” value is on record as “more than 1 hour”. Further, the “internalization of HSV complete” value in the data set on HSV-2 (20 minutes after the shift to 37° C.) is given as “less than 40%”. Further, in the data set on HSV [1], the “reduction of HSV core and envelope protein antigens detectable by ELISA” value is “more than 80%”; the “reduction of numbers of infected cells expressing ICP4 by immunofluorescence” value was “more than 80%”; the “reduction of replication of infectious virions in secondary plaque assay cultures” value is listed as not below 99%. Besides, in the data set with Vero cells, the “total uptake and relative metabolic conversion, Vero versus MDBK cells” value was 3-4 times higher. In the data set with Vero cells (after 12 hours of exposure), the “radioactive compound associated with nuclear fractions” value is reported as “less than 1%” and the “radioactive compound contained in cell membranes” value is 75%. Further, the “molecules of n-docosanol added to culture that enter the cell” value in the data set with Vero cells (radiolabeled n-docosanol) is given as “less than 1 out of 1000”. Also, in the data set with Vero cells (setting [3]), the cell-associated amount was ~8×10^9 molecules per cell and the “fraction of total n-docosanol added that becomes cell-associated” value is “less than 1%”. For the same compound, the “ED50 for inhibition of HSV replication relative to Tetronic” value with HSV [2] (suspended in Pluronic) is “approximately 3 times higher”. Also, in the data set with HSV [2] (suspended in Tetronic), the “ED50 for inhibition of HSV replication” value was 5 to 10 mM. In the data set on HSV-1 or HSV-2, the “ID50 for inhibition of HSV production” value stood at 4 mM and the “ID50 for inhibition of plaque formation” value came out at 9 mM.
